Data: patent US7034000B2, “Peptides derived from the human amyloid precursor protein” (The Brigham and Women's Hospital, Inc., priority 2000, dated 2006)

Experiment: ferrozine based iron oxidation (ferroxidase) assay
Format: biochemical
Details: for Vmax of iron oxidation: first set, 6.5 nM of protein; for Vmax, rate of iron oxidation: another set of ferrozine-based assays, 0.5 μM each; for ferroxidase activity when synthesized as a distinct peptide: statement in summary, no values
Experimental: Computer-based alignments of APP and H-ferritin were run using the Gap and Bestfit sequence alignment programs for Vax software. […] Bovine serum albumin (BSA) served as a negative control for these experiments since 6.5 μM BSA provided a 5-fold lower apparent rate of iron oxidation (an apparent reaction rate of 0.1 μM iron oxidized per minute). It was concluded that purified, secreted APP ectodomain specifically catalyzes the oxidation of 100-fold more iron per minute than the amount of APP present. This is an indication that APP harbors one or more sites for catalytic iron oxidation.
Using synthetic peptides, it was confirmed that sequences overlapping the newly identified FOX-1 domain in APP function as intrinsic ferroxidases. A peptide designated as “A2” (coding for residues 316 to 337 in APP-695)was tested. […] Ceruloplasmin (Cp) was used as a positive control since Cp is a known copper-dependent iron oxidase. […] The standard error for each of these reactions was less than 5%.
The known RERMS domain of APP (319 to 335 with respect to APP-695) is a cytoprotective region of APP and overlaps the A2 to peptide described above. […] The 827 sequence is HRBRMSQVMREWEEAERQAKNL (SEQ ID NO: 6), encoding 9 amino terminal amino acids that overlap with the RERMS peptide. In addition, 827 has 13 unique amino acids that align with the ferritin iron oxidase domain, as present in FOX-1. […] It was concluded that peptides spanning sequences from 316 to 346 of APP-695 can be used as agents to protect cells from iron catalyzed cellular damage.

APP: purified, secreted human amyloid precursor protein ectodomain
Vmax of iron oxidation: 0.5 µM/min | iron oxidized per minute relative to the amount of APP present (purified, secreted APP ectodomain): 100 fold

HRERMSQVMREWEEAERQAKNL (listed as Homo sapiens) [827 peptide, first 13 N-terminal amino acids of FOX-1 fused to nine amino acids from the RERMS domain of APP-695 (327–348)]
Vmax, rate of iron oxidation: 7.36 µM/min

REWEEAERQAKNLPKADKKAVIQH (listed as Homo sapiens) [FOX-1]
ferroxidase activity when synthesized as a distinct peptide: has ferroxidase activity

A2 peptide: synthetic peptide coding for residues 316 to 337 in APP-695, overlaps RERMS domain (CAPFFYGGCGGNRNNFDTEEYC; APP695; UniProt P05067 316-337, looked up, fragment)
rate of iron oxidation compared with BSA or RNase-A (0.5 μM): significantly higher | Vmax, rate of iron oxidation: 2.78 µM/min | iron oxidase activity Vmax (second set, 0.5 μM peptide): 2.96 μM/min/0.5 μM peptide

DGDEVEEEAEPYEEATERTTSIA (listed as Homo sapiens) [FOX-2, peptide corresponding to the complete FOX-2 domain, between amino acids 250 and 273 in APP-695]
ferroxidase activity when synthesized as a distinct peptide: has ferroxidase activity

B1: RNase-A: negative control protein (protein, UniProt P61823 27-150, looked up)
Ribonuclease pancreatic: KETAAAKFERQHMDSSTSAASSSNYCNQMMKSRNLTKDRCKPVNTFVHESLADVQAVCSQKNVACKNGQTNCYQSYSTMSITDCRETGSSKYPNCAYKTTQANKHIIVACEGNPYVPVHFDASV
apparent Vmax (second set, 0.5 μM, n=6, negative control): 1.96 µM iron/min/0.5 µM peptide

B2: Ceruloplasmin: known copper-dependent iron oxidase (ferroxidase), positive control (protein, UniProt P00450 20-1065, looked up)
Ceruloplasmin: KEKHYYIGIIETTWDYASDHGEKKLISVDTEHSNIYLQNGPDRIGRLYKKALYLQYTDETFRTTIEKPVWLGFLGPIIKAETGDKVYVHLKNLASRPYTFHSHGITYYKEHEGAIYPDNTTDFQRADDKVYPGEQYTYMLLATEEQSPGEGDGNCVTRIYHSHIDAPKDIASGLIGPLIICKKDSLDKEKEKHIDREFVVMFSVVDENFSWYLEDNIKTYCSEPEKVDKDNEDFQESNRMYSVNGYTFGSLPGLSMCAEDRVKWYLFGMGNEVDVHAAFFHGQALTNKNYRIDTINLFPATLFDAYMVAQNPGEWMLSCQNLNHLKAGLQAFFQVQECNKSSSKDNIRGKHVRHYYIAAEEIIWNYAPSGIDIFTKENLTAPGSDSAVFFEQGTTRIGGSYKKLVYREYTDASFTNRKERGPEEEHLGILGPVIWAEVGDTIRVTFHNKGAYPLSIEPIGVRFNKNNEGTYYSPNYNPQSRSVPPSASHVAPTETFTYEWTVPKEVGPTNADPVCLAKMYYSAVEPTKDIFTGLIGPMKICKKGSLHANGRQKDVDKEFYLFPTVFDENESLLLEDNIRMFTTAPDQVDKEDEDFQESNKMHSMNGFMYGNQPGLTMCKGDSVVWYLFSAGNEADVHGIYFSGNTYLWRGERRDTANLFPQTSLTLHMWPDTEGTFNVECLTTDHYTGGMKQKYTVNQCRRQSEDSTFYLGERTYYIAAVEVEWDYSPQREWEKELHHLQEQNVSNAFLDKGEFYIGSKYKKVVYRQYTDSTFRVPVERKAEEEHLGILGPQLHADVGDKVKIIFKNMATRPYSIHAHGVQTESSTVTPTLPGETLTYVWKIPERSGAGTEDSACIPWAYYSTVDQVKDLYSGLIGPLIVCRRPYLKVFNPRRKLEFALLFLVFDENESWYLDDNIKTYSDHPEKVNKDDEEFIESNKMHAINGRMFGNLQGLTMHVGDEVNWYLMGMGNEIDLHTVHFHGHSFQYKHRGVYSSDVFDIFPGTYQTLEMFPRTPGIWLLHCHVTDHIHAGMETTYTVLQNEDTKSG
Vmax, rate of iron oxidation: 6.41 µM/min | Vmax of iron oxidation: 5 µM/min | reaction velocity (Vmax) (second set, 0.5 μM protein, n=6, positive control): 4.2 µM iron/min/0.5 µM protein

B3: RNaseTI: control protein in the second set of ferrozine-based assays (protein, UniProt P00651 27-130, looked up)
Guanyl-specific ribonuclease …: ACDYTCGSNCYSSSDVSTAQAAGYQLHEDGETVGSNSYPHKYNNYEGFDFSVSSPYYEWPILSSGDVYSGGSPGADRVVFNENNQLAGVITHTGASGNNFVECT
Vmax, rate of iron oxidation: 1.05 µM/min
